Source: PubChem BioAssay (NCI)
Where “and” joins values, the source holds several entries; their conditions need not be identical. Equal values may be shown once.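 1) Cells in 96-well plates. 2) Compound, 48 h, 5 concentrations. 3) Linear interpolation between surrounding doses. 4) Unreached endpoint = highest concentration. The concentration for 50% growth inhibition is given as GI50. TGI is the concentration that stops growth completely.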

What was measured:
Test in all cases: NCI-60 cell line screen, 48 h
[1] = test system: HOP-62 NSCLC
[2] = test system: M14 melanoma
[3] = test system: CAKI-1 renal
[4] = test system: HCT-15 colon
[5] = test system: A549 NSCLC
[6] = test system: UACC-257 melanoma
[7] = test system: SK-OV-3 ovarian
[8] = test system: NCI-H460 lung
[9] = test system: NCI-H522 lung
[10] = test system: MALME-3M melanoma

Structure (SMILES)	GI50 [1]	TGI [1]	GI50 [2] [µM]	TGI [2] [µM]	GI50 [3] [µM]	TGI [3]	GI50 [4] [µM]	TGI [4] [µM]	GI50 [5] [µM]	TGI [5] [µM]	GI50 [6] [µM]	TGI [6] [µM]	GI50 [7] [µM]	TGI [7] [µM]	GI50 [8] [µM]	TGI [8] [µM]	GI50 [9]	TGI [9] [µM]	GI50 [10] [µM]	TGI [10] [µM]
O=C1/C(=C/c2ccc([N+](=O)[O-])s2)Oc2ccc(Br)cc21	1 µM	4.3 µM	0.423	1.9	1.16	9.42 µM	0.208	0.583	0.376	1.68	0.572	3.96	2.09	5.04	0.396	1.63	0.177 µM	0.351	0.347	1.6
CCOC(=O)c1c(C)n(Cc2ccc(Cl)cc2Cl)c2c1cc(O)c1[nH]c(Cc3ccccc3)nc12	4.61 µM	19.4 µM	11	37.5	8.29	26.8 µM	3.94	18.5	2.86	14	19.3	39	16.3	32	2.71	6.65	3.2 µM	15.6	7.26	28.8
O=C1/C(=C/c2ccccc2)CN(C(=O)/C=C/c2ccccc2)C/C1=C\c1ccccc1	–	48.9 µM	–	12.8	–	99.4 µM	–	18.3	–	37.2	–	37	–	57.9	–	39.3	–	27.7	–	34.1
COC(=O)C(C(=O)C(=O)Nc1nc2ccc(OC)cc2s1)c1cnc2ccccc2n1 (stereo not drawn)	–	> 100 µM	–	> 100	–	> 100 µM	–	> 100	–	> 100	–	> 100	–	> 100	–	> 100	–	> 100	–	> 100
COc1cccc(C2=C(c3cn(C)c4c(C)cccc34)C(=O)NC2=O)c1	> 25 µM	> 25 µM	> 25	> 25	> 14.1	> 25 µM	14.2	> 25	> 23.2	> 25	> 25	> 25	> 25	> 25	> 25	> 25	> 18.2 µM	> 25	> 25	> 25
N#C/C(=C\c1ccccn1)c1nc2ccccc2o1	> 100 µM	> 100 µM	30.7	> 100	35.1	> 100 µM	20.7	55.8	36.5	> 100	35.8	> 100	45.9	> 100	31.7	> 100	16.6 µM	37	25.2	> 100
Cc1cc(N)c2cc(NC(=O)/C=C\c3ccccc3Cl)ccc2n1	0.725 µM	1.73 µM	0.748	2.02	1.77	3.24 µM	1.77	3.27	1.71	3.25	1.76	3.23	1.85	3.27	1.19	2.7	1.71 µM	3.29	2.05	3.89
O=C1c2ccccc2-n2c1nc1ccc([N+](=O)[O-])cc1c2=O	–	> 100 µM	–	> 100	–	99.7 µM	–	> 100	–	> 100	–	> 100	–	> 100	–	> 100	–	> 100	–	> 100
CCc1n(Cc2ccc3ccccc3c2)cc[n+]1Cc1ccc2ccccc2c1	1.42 µM	3.65 µM	1.21	2.96	12.4	25.5 µM	3.94	15.3	2.59	13.9	0.554	3.27	1.46	5.73	0.724	2.15	0.303 µM	1.44	0.247	1.3
CCOC(=O)c1nc2sc(Cl)cn2c1/C=N/N=C(N)N	19.1 µM	40.4 µM	18.8	45.6	27	> 76.9 µM	26.8	> 75.2	26.9	> 58.3	35.8	> 86	44.3	98.3	28.2	> 59.6	20.5 µM	47.1	17.8	37.9
CCCOC(=O)C1C(c2ccc(OC)cc2)NC(c2ccc(OC)cc2)C(C(=O)OCCC)S1(=O)=O (stereo not drawn)	> 100 µM	> 100 µM	> 100	> 100	> 100	> 100 µM	> 100	> 100	> 100	> 100	> 100	> 100	–	> 100	–	–	> 100 µM	> 100	> 100	> 100
CCCCCCCCCCCCNC(=S)OCCCC	–	> 100 µM	–	> 100	–	> 100 µM	–	> 100	–	> 100	–	> 100	–	> 100	–	> 100	–	> 100	–	> 100
C=CC(=O)N1CCN(c2nc(OC[C@@H]3CCCN3C)nc3c(F)c(-c4nc(N)cc(C)c4C(F)(F)F)c(Cl)cc23)[C@@H](C)C1	–	13.1 µM	1.85	3.57	1.51	2.95 µM	1.7	3.47	3.36	13.6	1.57	3	2.62	6.42	2.29	5.39	1.21 µM	2.75	1.86	3.37
CC1Nc2ccccc2NC1C=C(C#N)C#N (stereo not drawn)	–	43.7 µM	–	25.7	–	28.9 µM	–	37.3	–	54.1	–	–	–	52.6	–	42.5	–	25.3	–	32.3
COc1ccc(C2=NC(CO)[C@H](c3ccccc3)O2)cc1OC (stereo partly drawn)	–	> 100 µM	–	> 100	–	> 100 µM	–	> 100	–	> 100	–	> 100	–	> 100	–	> 100	–	> 100	–	> 100
CN(C)Cc1nsc(N(C)C)n1	–	> 100 µM	–	> 100	–	> 100 µM	–	> 100	–	> 100	–	> 100	–	> 100	–	> 100	–	> 100	–	> 100
CCOC(=O)c1ccc(N[C@@H]2c3cc4c(cc3C(c3cc(OC)c(O)c(OC)c3)[C@H]3C(=O)OCC32)OCO4)cc1 (stereo partly drawn)	0.212 µM and 0.129 µM	0.709 µM and 0.79 µM	0.353	4.32	0.109	0.854 µM and 3.88 µM	–	6.17	0.103	2.76	–	25	0.37	5.16	0.0385	1.33	0.395 µM and 1.28 µM	4.98	0.343	2.95
NNC(=S)N/N=C(\c1nc2ccc(Cl)cc2[nH]c1=O)C(O)c1cccc([N+](=O)[O-])c1 (stereo not drawn)	–	> 55.8 µM	–	> 88	–	> 100 µM	–	> 100	–	> 100	–	> 100	–	> 100	–	> 100	–	> 100	–	> 100
CC[C@@]1(O)C(=O)OCc2c1cc1n(c2=O)Cc2cc3c(N)c(OC)ccc3nc2-1	< 0.01 µM	0.037 µM	0.0403	0.339	0.0251	0.796 µM	0.283	3.52	0.0445	1.91	0.219	2.15	0.0582	2.29	0.013	0.111	0.0434 µM	1.31	0.236	4.05
C=CCN=C1NC(=O)C(CC(=O)Nc2ccc([N+](=O)[O-])cc2[N+](=O)[O-])S1 (stereo not drawn)	–	> 100 µM	–	> 100	–	> 100 µM	–	> 100	–	> 100	–	> 100	–	> 100	–	> 100	–	> 100	–	> 100
O=C1CC2=CCCC2O1 (stereo not drawn)	–	> 100 µM	–	> 100	–	> 100 µM	–	> 100	–	> 100	–	> 100	–	> 100	–	> 100	–	> 100	–	> 100
C[C@H]1CCC/C=C/[C@@H]2C[C@H](O)C[C@H]2[C@H](O)C(O)C(O)C(=O)O1 (stereo partly drawn)	4.85 µM	> 100 µM	3.61	> 100	3.78	46 µM	–	–	4.54	> 100	1.1	> 100	3.75	> 100	2.65	> 100	2.26 µM	4.52	1.56	5.57
Oc1ccc(Br)cc1C=Nc1ccc(Oc2ccc(N=Cc3cc(Br)ccc3O)cc2)cc1	–	> 19.6 µM	–	> 19.6	–	> 19.6 µM	–	–	–	> 19.6	–	> 19.6	–	> 19.6	–	> 19.6	–	> 19.6	–	> 19.6
CN(C)c1ccc(-c2nc(N)nc3c2CCCC3)cc1	–	> 100 µM	–	> 100	–	> 100 µM	–	–	–	> 100	–	–	–	> 100	–	> 100	–	98.1	–	> 100
